This passage reports IC50 results from patent US10130633B2, “Compounds” (BAYER PHARMA AKTIENGESELLSCHAFT, priority 2013, dated 2018).

As usually defined, the IC50 is the concentration at which inhibition is half-maximal. A higher IC50 goes with a need for much substance.

Where only a bound is given, the exact number is not on record here.

Assay [1] deals with constitutive active colorectal cancer cell (CRC) Wnt pathway. Nature of the assay: HCT116 TOPFlash cellular reporter assay (Super TopFlash luciferase), constitutive active Wnt pathway. The format is cell-based. Particulars: HCT116 TOP reporter cells, 36 hours incubation, luciferase expression. Here is the method: In order to discover and characterize small molecules which inhibit the constitutive active colorectal cancer cell (CRC) Wnt pathway, a cellular reporter assay was employed. […] Stable transfectants were generated by cotransfection with pcDNA3 and selection of stable transfected cells with 1 mg/ml G418.
In general terms: In a reporter assay the amount or activity of a reporter protein is the signal.

The subject of assay [2] is HCT116 FOP control reporter cell line. Briefly: HCT116 FOPFlash control reporter assay (FOP control vector, non-functional TCF elements). The format is cell-based. Particulars: HCT116 FOP control reporter cells, 36 hours incubation, luciferase expression. The text has this:
In a parallel approach, HCT116 cells were cotransfected with the FOP control vector and pcDNA3. The FOP vector is identical to the TOP construct, but it contains instead of functional TCF elements a randomized, non-functional sequence. For this transfection a stable transfected cell line was generated as well.

Turning to `COCc1ccc(C(=O)Nc2nnc(-c3ccccc3)s2)cc1NC(=O)CN1CCOCC1` [Example 83, 4-(methoxymethyl)-3-[(morpholin-4-ylacetyl)amino]-N-(5-phenyl-1,3,4-thiadiazol-2-yl)benzamide], the IC50 in assay [1] (Homo sapiens, HCT-116, 36 h) was 515 nM; in assay [2] (Homo sapiens, HCT-116, 36 h), not below 50000 nM.

Regarding `COCc1ccc(C(=O)Nc2nnc(-c3ccccc3)s2)cc1NC(=O)CN1CCN(C2CC2)CC1` [Example 84, 3-{[(4-cyclopropylpiperazin-1-yl)acetyl]amino}-4-(methoxymethyl)-N-(5-phenyl-1,3,4-thiadiazol-2-yl)benzamide], the IC50 is 453 nM in assay [1] (Homo sapiens, HCT-116, 36 h) and not below 50000 nM in assay [2] (Homo sapiens, HCT-116, 36 h).

On to `COCCN(C)CC(=O)Nc1cc(C(=O)Nc2nnc(-c3ccccc3)s2)ccc1OC(F)(F)F` [Example 85, 3-{[N-(2-methoxyethyl)-N-methylglycyl]amino}-N-(5-phenyl-1,3,4-thiadiazol-2-yl)-4-(trifluoromethoxy)benzamide], for which the IC50 in assay [1] (Homo sapiens, HCT-116, 36 h) was 150 nM; in assay [2] (Homo sapiens, HCT-116, 36 h) it was not below 50000 nM.

As for `O=C(CN1CC2CCC(C1)O2)Nc1cc(C(=O)Nc2nnc(-c3ccccc3)s2)ccc1OC(F)F` [Example 86, 4-(difluoromethoxy)-3-[(8-oxa-3-azabicyclo[3.2.1]oct-3-ylacetyl)amino]-N-(5-phenyl-1,3,4-thiadiazol-2-yl)benzamide], the IC50 in assay [1] (Homo sapiens, HCT-116, 36 h) is 890 nM; in assay [2] (Homo sapiens, HCT-116, 36 h) it was not below 50000 nM.

Turning to `CC(C(=O)Nc1cc(C(=O)Nc2nnc(-c3ccccc3)s2)ccc1CS(C)(=O)=O)N1CCOCC1` (stereo not drawn) [Example 87, 4-[(methylsulfonyl)methyl]-3-{[2-(morpholin-4-yl)propanoyl]amino}-N-(5-phenyl-1,3,4-thiadiazol-2-yl)benzamide], the IC50 in assay [1] (Homo sapiens, HCT-116, 36 h) worked out at 858 nM; in assay [2] (Homo sapiens, HCT-116, 36 h), 48000 nM.

With `CC(C(=O)Nc1cc(C(=O)Nc2nnc(-c3ccccc3)s2)ccc1CS(C)(=O)=O)N1CCN(C)CC1` (stereo not drawn) [Example 88, 3-{[2-(4-methylpiperazin-1-yl)propanoyl]amino}-4-[(methylsulfonyl)methyl]-N-(5-phenyl-1,3,4-thiadiazol-2-yl)benzamide], the IC50 in assay [1] is 417 nM; in assay [2], not below 50000 nM.

On to `O=C(Nc1nnc(-c2ccccc2F)s1)c1ccc(OC(F)(F)F)c(NC(=O)C2(N3CCOCC3)CC2)c1` [Example 89, N-[5-(2-fluorophenyl)-1,3,4-thiadiazol-2-yl]-3-({[1-(morpholin-4-yl)cyclopropyl]carbonyl}amino)-4-(trifluoromethoxy)benzamide], for which the concentration for half-maximal inhibition (IC50) in assay [1] (Homo sapiens, HCT-116, 36 h) stood at 216 nM; in assay [2] (Homo sapiens, HCT-116, 36 h) it was 44000 nM.

Turning to `O=C(Nc1nnc(-c2ccc(F)cc2)s1)c1ccc(OC(F)(F)F)c(NC(=O)C2(N3CCOCC3)CC2)c1` [Example 90, N-[5-(4-fluorophenyl)-1,3,4-thiadiazol-2-yl]-3-({[1-(morpholin-4-yl)cyclopropyl]carbonyl}amino)-4-(trifluoromethoxy)benzamide], the IC50 in assay [1] (Homo sapiens, HCT-116, 36 h) is 173 nM; in assay [2] (Homo sapiens, HCT-116, 36 h) it was not below 50000 nM.

Regarding `COc1ccc(C(=O)Nc2nnc(-c3ccccc3)s2)cc1NC(=O)CN1CCN(C)CC1` [Example 91, 4-methoxy-3-{[(4-methylpiperazin-1-yl)acetyl]amino}-N-(5-phenyl-1,3,4-thiadiazol-2-yl)benzamide], the IC50 in assay [1] (Homo sapiens, HCT-116, 36 h) turned out to be 650 nM; in assay [2] (Homo sapiens, HCT-116, 36 h), 44000 nM.

In the case of `O=C(Nc1nnc(-c2ccccc2)s1)c1ccc(OCc2ccccc2)c(NC(=O)C2(N3CCOCC3)CC2)c1` [Example 92, 4-(benzyloxy)-3-({[1-(morpholin-4-yl)cyclopropyl]carbonyl}amino)-N-(5-phenyl-1,3,4-thiadiazol-2-yl)benzamide], the IC50 in assay [1] (Homo sapiens, HCT-116, 36 h) was 360 nM; in assay [2] (Homo sapiens, HCT-116, 36 h), not below 50000 nM.

`O=C(Nc1nnc(-c2ccccc2)s1)c1ccc(O)c(NC(=O)C2(N3CCOCC3)CC2)c1` [Example 93, 4-hydroxy-3-({[1-(morpholin-4-yl)cyclopropyl]carbonyl}amino)-N-(5-phenyl-1,3,4-thiadiazol-2-yl)benzamide]: the concentration for half-maximal inhibition (IC50) is 240 nM in assay [1] (Homo sapiens, HCT-116, 36 h) and not below 50000 nM in assay [2] (Homo sapiens, HCT-116, 36 h).

On to `CN1CCN(CC(=O)Nc2cc(C(=O)Nc3nnc(-c4ccccc4)s3)ccc2Br)CC1` [Example 94, 4-bromo-3-{[(4-methylpiperazin-1-yl)acetyl]amino}-N-(5-phenyl-1,3,4-thiadiazol-2-yl)benzamide], for which the IC50 in assay [1] (Homo sapiens, HCT-116, 36 h) is 433 nM; in assay [2] (Homo sapiens, HCT-116, 36 h) it was not below 50000 nM.

With `Cc1cccc(-c2nnc(NC(=O)c3ccc(OC(F)(F)F)c(NC(=O)CN4CCOCC4)c3)s2)c1` [Example 96, N-[5-(3-methylphenyl)-1,3,4-thiadiazol-2-yl]-3-[(morpholin-4-ylacetyl)amino]-4-(trifluoromethoxy)benzamide], the IC50 in assay [1] (Homo sapiens, HCT-116, 36 h) was 855 nM; in assay [2] (Homo sapiens, HCT-116, 36 h) it was not below 50000 nM.

As for `O=C(CN1CCOCC1)Nc1cc(C(=O)Nc2nnc(-c3ccc([N+](=O)[O-])cc3)s2)ccc1OC(F)(F)F` [Example 97, 3-[(morpholin-4-ylacetyl)amino]-N-[5-(4-nitrophenyl)-1,3,4-thiadiazol-2-yl]-4-(trifluoromethoxy)benzamide], the IC50 in assay [1] (Homo sapiens, HCT-116, 36 h) is 1930 nM; in assay [2] (Homo sapiens, HCT-116, 36 h), not below 50000 nM.

Take `Cc1ccccc1-c1nnc(NC(=O)c2ccc(OC(F)(F)F)c(NC(=O)CN3CCOCC3)c2)s1` [Example 98, N-[5-(2-methylphenyl)-1,3,4-thiadiazol-2-yl]-3-[(morpholin-4-ylacetyl)amino]-4-(trifluoromethoxy)benzamide]: the IC50 in assay [1] (Homo sapiens, HCT-116, 36 h) is 87 nM; in assay [2] (Homo sapiens, HCT-116, 36 h), 26400 nM.

With `O=C(CN1CCOCC1)Nc1cc(C(=O)Nc2nnc(-c3ccc(F)cc3)s2)ccc1OC(F)(F)F` [Example 99, N-[5-(4-fluorophenyl)-1,3,4-thiadiazol-2-yl]-3-[(morpholin-4-ylacetyl)amino]-4-(trifluoromethoxy)benzamide], the IC50 in assay [1] (Homo sapiens, HCT-116, 36 h) stood at 935 nM; in assay [2] (Homo sapiens, HCT-116, 36 h), 9300 nM.

For the compound `O=C(CN1CCN(CC(F)F)CC1)Nc1cc(C(=O)Nc2ccc(-c3ccccc3F)nc2)ccc1OC(F)(F)F` [Example 100, 3-({[4-(2,2-difluoroethyl)piperazin-1-yl]acetyl}amino)-N-[6-(2-fluorophenyl)pyridin-3-yl]-4-(trifluoromethoxy)benzamide], the IC50 in assay [1] (Homo sapiens, HCT-116, 36 h) is 858 nM; in assay [2] (Homo sapiens, HCT-116, 36 h), not below 50000 nM.

With `COc1ccccc1-c1nnc(NC(=O)c2ccc(OC(F)(F)F)c(NC(=O)CN3CCN(C)CC3)c2)s1` [Example 101, N-[5-(2-methoxyphenyl)-1,3,4-thiadiazol-2-yl]-3-{[(4-methylpiperazin-1-yl)acetyl]amino}-4-(trifluoromethoxy)benzamide], the half-inhibitory concentration (IC50) in assay [1] (Homo sapiens, HCT-116, 36 h) is 3200 nM; in assay [2] (Homo sapiens, HCT-116, 36 h), not below 50000 nM.

On to `Cc1ccc(-c2nnc(NC(=O)c3ccc(OC(F)(F)F)c(NC(=O)CN4CCN(C)CC4)c3)s2)cc1` [Example 102, N-[5-(4-methylphenyl)-1,3,4-thiadiazol-2-yl]-3-{[(4-methylpiperazin-1-yl)acetyl]amino}-4-(trifluoromethoxy)benzamide], for which the IC50 in assay [1] (Homo sapiens, HCT-116, 36 h) came out at 458 nM; in assay [2] (Homo sapiens, HCT-116, 36 h) it was 19500 nM.

As to `Cc1ccc(C(=O)Nc2nnc(-c3ccccc3)s2)cc1NC(=O)C1(N2CCOCC2)CC1` [Example 103, 4-methyl-3-({[1-(morpholin-4-yl)cyclopropyl]carbonyl}amino)-N-(5-phenyl-1,3,4-thiadiazol-2-yl)benzamide], the IC50 was 752 nM in assay [1] (Homo sapiens, HCT-116, 36 h) and 21000 nM in assay [2] (Homo sapiens, HCT-116, 36 h).

As for `CN1CCN(CC(=O)Nc2cc(C(=O)Nc3nnc(-c4ccccc4)s3)ccc2CS(C)(=O)=O)CC1` [Example 104, 3-{[(4-methylpiperazin-1-yl)acetyl]amino}-4-[(methylsulfonyl)methyl]-N-(5-phenyl-1,3,4-thiadiazol-2-yl)benzamide], the concentration for half-maximal inhibition (IC50) is 2030 nM in assay [1] (Homo sapiens, HCT-116, 36 h) and not below 50000 nM in assay [2] (Homo sapiens, HCT-116, 36 h).

With `COC(=O)c1ccc(C(=O)Nc2nnc(-c3ccccc3)s2)cc1NC(=O)CN1CCOCC1` [Example 106, methyl 2-[(morpholin-4-ylacetyl)amino]-4-[(5-phenyl-1,3,4-thiadiazol-2-yl)carbamoyl]benzoate], the concentration for half-maximal inhibition (IC50) was 285 nM in assay [1] (Homo sapiens, HCT-116, 36 h) and not below 50000 nM in assay [2] (Homo sapiens, HCT-116, 36 h).

In the case of `COc1ccc(NC(=O)c2cnc(-c3ccccc3)s2)cc1NC(=O)C(C)N1CCOCC1` (stereo not drawn) [Example 107, N-(4-methoxy-3-{[2-(morpholin-4-yl)propanoyl]amino}phenyl)-2-phenyl-1,3-thiazole-5-carboxamide], the concentration for half-maximal inhibition (IC50) is 209 nM in assay [1] (Homo sapiens, HCT-116, 36 h) and not below 50000 nM in assay [2] (Homo sapiens, HCT-116, 36 h).

On to `O=C(Nc1ccc(OC(F)(F)F)c(NC(=O)C2(N3CCOCC3)CC2)c1)c1cnc(-c2ccccc2)s1` [Example 108, N-[3-({[1-(morpholin-4-yl)cyclopropyl]carbonyl}amino)-4-(trifluoromethoxy)phenyl]-2-phenyl-1,3-thiazole-5-carboxamide], for which the IC50 is 463 nM in assay [1] (Homo sapiens, HCT-116, 36 h) and not below 50000 nM in assay [2] (Homo sapiens, HCT-116, 36 h).

`CC(C(=O)Nc1cc(C(=O)Nc2ccc(-c3ccc(O)cc3F)nc2)ccc1OC(F)(F)F)N1CCOCC1` (stereo not drawn) [Example 109, N-[6-(2-fluoro-4-hydroxyphenyl)pyridin-3-yl]-3-{[2-(morpholin-4-yl)propanoyl]amino}-4-(trifluoromethoxy)benzamide]: the IC50 in assay [1] (Homo sapiens, HCT-116, 36 h) was 208 nM; in assay [2] (Homo sapiens, HCT-116, 36 h), 29900 nM.

In the case of `CC(C(=O)Nc1cc(C(=O)Nc2ccc(-c3ccc(O)c(F)c3)nc2)ccc1OC(F)(F)F)N1CCOCC1` (stereo not drawn) [Example 110, N-[6-(3-fluoro-4-hydroxyphenyl)pyridin-3-yl]-3-{[2-(morpholin-4-yl)propanoyl]amino}-4-(trifluoromethoxy)benzamide], the IC50 in assay [1] (Homo sapiens, HCT-116, 36 h) came to 450 nM; in assay [2] (Homo sapiens, HCT-116, 36 h) it was 42000 nM.

Turning to `CC(C(=O)Nc1cc(C(=O)Nc2ccc(-c3ccc(C(F)F)cc3)nc2)ccc1OC(F)(F)F)N1CCOCC1` (stereo not drawn) [Example 112, N-{6-[4-(difluoromethyl)phenyl]pyridin-3-yl}-3-{[2-(morpholin-4-yl)propanoyl]amino}-4-(trifluoromethoxy)benzamide], the IC50 in assay [1] (Homo sapiens, HCT-116, 36 h) is 270 nM; in assay [2] (Homo sapiens, HCT-116, 36 h) it was not below 50000 nM.
